Results published in patent US8133849B2, “Herbicidal compounds” (Syngenta Limited, priority 2007, dated 2012).

How the values were obtained:
Assay in all cases: Example B2 herbicidal action, post-emergence, pots in glasshouse, damage score 0-10
Type in all cases: in vivo
Conditions in all cases: application post-emergence, rate 1000 g/ha, evaluated after 13 days
[1] = tested on: Amaranthus retroflexus
Procedure, shortened: (§1)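 Evaluation took place 13 days post-spray. Treatment used an acetone/water (50:50), 0.5% Tween 20 formulation applied to 8-day-old potted plants, held at 24/16 °C with 14 h light, 65% humidity and twice-daily watering.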

[2] = tested on: Echinochloa crus-galli
Procedure, shortened: as §1

[3] = tested on: Ipomea hederaceae
Procedure, shortened: as §1

[4] = tested on: Setaria faberi
Procedure, shortened: as §1

[5] = tested on: Solanum nigrum
Procedure, shortened: as §1

SMILES | AMARE damage score (10=total damage to plant; 0=no damage to plant) [1] | ECHCG damage score (10=total damage to plant; 0=no damage to plant) [2] | IPOHE damage score (10=total damage to plant; 0=no damage to plant) [3] | SETFA damage score (10=total damage to plant; 0=no damage to plant) [4] | SOLNI damage score (10=total damage to plant; 0=no damage to plant) [5]
O=S1(=O)C(c2c(F)ccc(-c3cccc(Cl)c3)c2Cl)=C(O)c2nccnc2N1CC(F)F [Compound D20] | 3 | 1 | 6 | 1 | 5
Cc1ccc(C(F)(F)F)c(C2=C(OC(=O)C(C)(C)C)c3nccnc3N(CC(F)F)S2(=O)=O)c1 [Compound C148] | 7 | 3 | 8 | 2 | 9
CC(C)C(=O)OC1=C(c2ccc(Cl)cc2Cl)S(=O)(=O)N(CCF)c2nccnc21 [Compound C58, isobutyric acid 3-(2,4-dichloro-phenyl)-1-(2-fluoroethyl)-2,2-dioxo-1,2-dihydro-2-λ-6-thia-1,5,8-triaza-naphthalen-4-yl ester] | 10 | 6 | 9 | 4 | 9
CCN1c2nccnc2C(O)=C(c2c(F)cccc2C(F)(F)F)S1(=O)=O [Compound D21] | 8 | 6 | 9 | 6 | 9
CC(C)C(=O)OC1=C(c2cc(Cl)cc(C(F)(F)F)c2)S(=O)(=O)N(CC(F)F)c2nccnc21 [Compound C149] | 10 | 0 | 0 | 0 | 8
CCN1c2nccnc2C(O)=C(c2c(Cl)cccc2C(F)(F)F)S1(=O)=O [Compound D6] | 10 | 7 | 9 | 5 | 10
O=S1(=O)C(c2cccc(Cl)c2Cl)=C(O)c2nccnc2N1CC(F)F [Compound D50] | 5 | 1 | 8 | 2 | 10
CCN1c2nccnc2C(OC(=O)C(C)(C)C)=C(c2c(F)ccc(OC)c2Cl)S1(=O)=O [Compound C24] | 2 | 4 | 9 | 0 | 9
COc1ccc(Cl)c(C2=C(OC(=O)C(C)C)c3nccnc3N(CC(F)F)S2(=O)=O)c1F [Compound C143] | 1 | 4 | 8 | 0 | 10
CC(C)(C)C(=O)OC1=C(c2c(F)ccc(Cl)c2Cl)S(=O)(=O)N(CC(F)F)c2nccnc21 [Compound C20] | 10 | 8 | 10 | 0 | 10
CC(C)C(=O)OC1=C(c2c(Cl)ccc(Cl)c2Cl)S(=O)(=O)N(CC(F)F)c2nccnc21 [Compound C38] | 9 | 9 | 10 | 9 | 10
C#CCN1c2nccnc2C(OC(=O)SCC)=C(c2c(Cl)ccc(Cl)c2C(F)(F)F)S1(=O)=O [Compound C85] | 7 | 7 | 9 | 6 | 10
CCN1c2nccnc2C(OC(=O)C(C)(C)C)=C(c2c(Cl)cccc2C(F)(F)F)S1(=O)=O [Compound C17] | 8 | 5 | 7 | 4 | 9
O=S1(=O)C(c2cc(C(F)(F)F)ccc2Cl)=C(O)c2nccnc2N1CC(F)F [Compound D16, 3-(2-chloro-5-trifluoromethyl-phenyl)-1-(2,2-difluoro-ethyl)-2,2-dioxo-1,2-dihydro-2-λ-6-thia-1,5,8-triaza-naphthalen-4-ol] | 10 | 5 | 9 | 2 | 10
CCN1c2nccnc2C(O)=C(c2cc(C(F)(F)F)ccc2Br)S1(=O)=O [Compound D35] | 8 | 1 | 10 | 4 | 9
C=C(C)CN1c2nccnc2C(OC(=O)C(C)(C)C)=C(c2cccc(Cl)c2Cl)S1(=O)=O [Compound C140] | 0 | 0 | 2 | 0 | 2
COc1ccc(Cl)c(C2=C(OC(=O)C(C)(C)C)c3nccnc3N(CC(F)F)S2(=O)=O)c1F [Compound C144] | 0 | 0 | 7 | 0 | 4
CCSC(=O)OC1=C(c2cc(Cl)ccc2C(F)(F)F)S(=O)(=O)N(CC)c2nccnc21 [Compound C109] | 5 | 5 | 9 | 2 | 8
CCN1c2nccnc2C(OC(=O)C(C)(C)C)=C(c2c(F)cccc2C(F)(F)F)S1(=O)=O [Compound C43] | 5 | 5 | 5 | 3 | 6
O=S1(=O)C(c2c(Cl)cccc2C(F)(F)F)=C(O)c2c(ncc[n+]2[O-])N1CC(F)F [Compound E2] | 8 | 6 | 8 | 8 | 9
CCN1c2nccnc2C(OC(=O)C(C)(C)C)=C(c2ccc(Cl)cc2C(F)(F)F)S1(=O)=O [Compound C15] | 9 | 7 | 8 | 2 | 9
O=S1(=O)C(c2c(C(F)(F)F)ccc(Cl)c2Cl)=C(O)c2nccnc2N1CC(F)F [Compound D57] | 10 | 9 | 7 | 10 | 10
O=S1(=O)C(c2cc(C(F)(F)F)ccc2Cl)=C(O)c2c(ncc[n+]2[O-])N1CC(F)F [Compound E1, 3-(2-chloro-5-trifluoromethyl-phenyl)-1-(2,2-difluoro-ethyl)-2,2-dioxo-5-oxy-1,2-dihydro-2-λ-6-thia-1,5,8-triaza-naphthalen-4-ol] | 4 | 3 | 7 | 1 | 9
CCN1c2nccnc2C(O)=C(c2cccc(C(F)(F)F)c2Cl)S1(=O)=O [Compound D38] | 9 | 1 | 5 | 0 | 8
CC(C)C(=O)OC1=C(c2ccc(Br)cc2C(F)(F)F)S(=O)(=O)N(CC(F)F)c2nccnc21 [Compound C132] | 10 | 6 | 10 | 7 | 10
